{
  "source": "patent US20210147932A1",
  "about": "“FLUORESCENT PROBES FOR QUANTIFICATION OF DNA DAMAGE AND REPAIR” (The Board of Trustees of the Leland Stanford Junior …, priority 2019, published 2021)",
  "tested_on": "AP-DNA",
  "experiment": "Oxime formation kinetics of probe with AP-DNA",
  "assay_type": "biochemical",
  "method": "FIG. 3 provides representative plots for calculations of k2 for Compound (1) (CCVJ1) under various buffer conditions with oligo 15. Plots were fitted in OriginPro 8.5 according to the equation derived by Larsen et. al.^5 for second-order rate constants of oxime formation. Apparent second-order rate constants were calculated as the average of three replicates.\nFIG. 5A provides fluorescence real-times responses for oxime formation under varied conditions. The Time course of oxime formation between Compound (1) (CCVJ1) (5 μM) and AP-DNA (20 μM) under varied buffer conditions (50 mM) is shown. Ionic strength adjusted to 150 mM with NaCl\nNext the reaction rates with CCVJ1 were evaluated. To measure oxime formation kinetics, 5 μM CCVJ1 was reacted with 20 μM AP DNA, and the resulting fluorescence time course was used to determine second-order rate constants by nonlinear regression analysis. Tris buffer was selected since it is commonly used in glycosylase assays with a salt concentration of 100 mM NaCl.\nIn addition to Tris buffer, oxime formation kinetics were also measured for CCVJ1 with AP DNA in a solution of a catalytic amine buffer previously shown to accelerate oxime formation. To this end, it was employed 50 mM N,N-dimethylethylenediamine (DEDA)•HCl buffered to a pH of 7.0 in place of the above Tris buffers. […] Such rapid rates of oxime formation at neutral pH are unprecedented for unactivated aldehydes.\nIn addition to the 5′ and 3′ neighboring bases, studies were done of the effect of the orphaned base Z paired opposite the abasic site on the UBER probe system (FIG. 10, panels C-D). Using the sequence where X=C and Y=G, the identity was varied of the base Z opposite the AP site. […] As a result, the smaller pyrimidine bases yielded a greater fluorescence light up response than the larger purine bases. It was also observed a strong effect by the opposing base on the rate of oxime formation (FIG. 10, panel D). […] This trend is in contrast to the neighboring base effect discussed above in which stronger stacking bases accelerated the rate of oxime formation.\nGeneral procedure for creating AP site DNA: A deoxyuridine containing oligonucleotide (typically 5-20 μM) was treated with 10 U/mL E. coli UDG (New England Biolabs) for 10 minutes at 37° C. in buffer to create AP site containing DNA (see below for MALDI-TOF confirmation). The hairpin was then reacted with probe from a DMSO stock solution (final DMSO concentration <5%).\nFluorescence time courses: Unless otherwise stated, fluorescence time courses were collected on a Fluoroskan Ascent Microplate Fluorometer (Thermo Fisher Scientific) with black, non-binding 384 well plates (Greiner) at a reaction volume of 60 μL with 50 mM Tris buffer pH 7 (ionic strength adjusted to 100 mM with NaCl) with a fluorescein filter set (Ex. 485, Em. 538).",
  "note": "Values joined by “and” are separate entries in the source; they are usually repeats but may differ in a detail not shown here. Identical values can stand only once.",
  "data": [
    {"smiles": "N#C/C(=C\\c1cc2c3c(c1)CCCN3CCC2)C(=O)NCCON", "note": "[CCVJ1]", "values": [
      {"measurement": "rate of oxime formation with optimal neighboring bases", "setting": "AP hairpin X=C, Y=G, Z=C", "value": "320 ± 13", "unit": "M⁻¹ s⁻¹"},
      {"measurement": "Apparent second-order rate constant of oxime formation k2", "setting": "DEDA pH 7 (50 mM N,N-dimethylethylenediamine HCl)", "value": "440 M⁻¹ s⁻¹ and 440 ± 12 M⁻¹ s⁻¹"},
      {"measurement": "Apparent second-order rate constant of oxime formation k2", "setting": "Tris pH 7, 5 μM CCVJ1, 20 μM AP DNA", "value": "147 M⁻¹ s⁻¹ and 147 ± 8 M⁻¹ s⁻¹"},
      {"measurement": "Apparent second-order rate constant of oxime formation k2", "setting": "Tris pH 7.5", "value": "51 ± 2", "unit": "M⁻¹ s⁻¹"},
      {"measurement": "Apparent second-order rate constant of oxime formation k2", "setting": "Tris pH 8", "value": "29 ± 1", "unit": "M⁻¹ s⁻¹"},
      {"measurement": "rate in DEDA buffer, times faster than in Tris", "setting": "pH 7.0", "value": "~3", "unit": "times"},
      {"measurement": "rate, times faster than typical oxime formation in neutral aqueous buffer", "setting": "pH 7.0", "value": "10^3-10^4 times"}
    ]}
  ]
}
